According to patent US5422126A, “Halogen compositions for water treatment and method of preparation thereof” (priority 1993, dated 1995):
Values after ≈ are worked out from the molar mass of the structure shown.

Columns and labels:
[1] = Water solubility of solid halogenated hydantoins and amount of halogen dissolved in a saturated solution; conditions: for Amount of halogen dissolved in saturated solution: saturated solution in water
physchem = conditions: water

Structure (SMILES)	Amount of halogen dissolved in saturated solution [1] [mg/L as Cl2]	Water solubility ([1]; solid halogenated hydantoin in water) [%]	solubility ([1]; water) [µg/mL]	solubility (physchem) [µg/mL]
CC1(C)C(=O)N(Cl)C(=O)N1Br [Bromo-chlorodimethylhydantoin, bromochlorodimethylhydantoin]	825	0.15	–	–
CC1(C)C(=O)N(Br)C(=O)N1Br [Dibromodimethylhydantion, 1,3-dibromo-5,5-dimethylhydantoin]	542	–	1100 (≈ 3.85 mM)	–
CC1(C)C(=O)N(Cl)C(=O)N1Cl [Dichlorodimethylhydantoin, dichlorodimethylhydantoin]	–	–	–	2100 (≈ 10.7 mM)
